# Measurements from ChEMBL document CHEMBL1201862, “PubChem BioAssay data set” (2004).
# “And” between values parts separate entries of the source, which are not always exact repeats. Equal entries are not always repeated.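 Cultured in 96-well plates, cells were exposed to test compound for 48 hours across five concentrations. GI50: concentration for 50% inhibition of growth.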 The source made the active and inactive calls. Rule as the data show it: active = GI50 up to about 1.1 µM and inactive = higher.
# Assays:
# Assay in all cases: DTP human tumour cell line panel, 48 h
# [1] = test system: SF-295
# [2] = test system: SF-268
# [3] = test system: HCT-15
# [4] = test system: MDA-MB-435
# [5] = test system: CAKI-1
# [6] = test system: NCI-H522
# [7] = test system: SW-620
# [8] = test system: NCI-H23
# [9] = test system: NCI-H226
# [10] = test system: MCF7
# [11] = test system: COLO 205
# [12] = test system: NCI/ADR-RES
# [13] = test system: IGROV-1
# [14] = test system: U-251
# [15] = test system: UACC-257
# [16] = test system: HOP-62
# [17] = test system: 786-0
# [18] = test system: CCRF-CEM
# [19] = test system: SF-539
# [20] = test system: MOLT-4
SMILES,GI50 [1],GI50 [2],GI50 [3],GI50 [4],GI50 [5],GI50 [6],GI50 [7],GI50 [8],GI50 [9],GI50 [10],GI50 [11],GI50 [12],GI50 [13],GI50 [14],GI50 [15],GI50 [16],GI50 [17],GI50 [18],GI50 [19],GI50 [20]
c1ccc(-c2nnn(CCN3CCCCC3)n2)cc1,> 100 µM (inactive),> 100 µM (inactive),> 100 µM,> 100 µM (inactive),> 100 µM (inactive),> 100 µM (inactive),> 100 µM (inactive),> 100 µM (inactive),> 100 µM (inactive),> 100 µM (inactive),> 100 µM (inactive),> 100 µM (inactive),> 100 µM (inactive),> 100 µM (inactive),> 100 µM (inactive),> 100 µM (inactive),> 100 µM (inactive),> 100 µM (inactive),,
Cc1ccc2nc(N/N=C/c3cccc(C)n3)cc(C)c2c1,15.4 µM (inactive),17.2 µM (inactive),14.2 µM,15.7 µM (inactive),16.8 µM (inactive),17.6 µM (inactive),17.1 µM (inactive),18.8 µM (inactive),24.7 µM (inactive),13.6 µM (inactive),15 µM (inactive),16.2 µM (inactive),13.9 µM (inactive),16.9 µM (inactive),16.9 µM (inactive),16 µM (inactive),16.2 µM (inactive),,17.8 µM (inactive),
Cc1ccc([N+](=O)[O-])cc1S(=O)(=O)Nc1ccc(C2=NN(S(=O)(=O)c3cc([N+](=O)[O-])ccc3C)C(c3ccco3)C2)cc1 (stereo unspecified),32.8 µM (inactive),53.3 µM (inactive),41.7 µM,54.7 µM (inactive),45.8 µM (inactive),45 µM (inactive),> 100 µM (inactive),37.6 µM (inactive),38.9 µM (inactive),32.1 µM (inactive),39.4 µM (inactive),40.3 µM (inactive),29.6 µM (inactive),,11.1 µM (inactive),45.2 µM (inactive),48.8 µM (inactive),27.6 µM (inactive),53 µM (inactive),28.2 µM (inactive)
CCCCCCCCCCCCCCCCCCOP1(=O)OCCO1,28.5 µM (inactive),,39.9 µM,> 100 µM (inactive),> 100 µM (inactive),54.6 µM (inactive),> 100 µM (inactive),> 100 µM (inactive),> 100 µM (inactive),> 100 µM (inactive),> 100 µM (inactive),> 100 µM (inactive),> 100 µM (inactive),27.9 µM (inactive),> 100 µM (inactive),79.1 µM (inactive),> 100 µM (inactive),54 µM (inactive),> 100 µM (inactive),40.7 µM (inactive)
CN(C)c1ccc(/C=C2\C[C@H]3[C@@H]4CC=C5C[C@@H](N6CCCC6)CC[C@]5(C)[C@H]4CC[C@]3(C)[C@H]2O)cc1,1.13 µM (inactive),0.989 µM (active),1.57 µM,1.35 µM (inactive),1.16 µM (inactive),1.11 µM (active),1.3 µM (inactive),3.66 µM (inactive),0.813 µM (active),2.96 µM (inactive),1.52 µM (inactive),1.62 µM (inactive),0.989 µM (active),0.925 µM (active),0.957 µM (active),1.71 µM (inactive),0.659 µM (active),,3.78 µM (inactive),1.82 µM (inactive)
CCc1c(N=[N+]=[N-])c2ccccc2oc1=O,> 100 µM (inactive),> 100 µM (inactive),> 100 µM,> 100 µM (inactive),,> 100 µM (inactive),> 100 µM (inactive),> 100 µM (inactive),> 100 µM (inactive),> 100 µM (inactive),> 100 µM (inactive),> 100 µM (inactive),49.7 µM (inactive),> 100 µM (inactive),> 100 µM (inactive),> 100 µM (inactive),> 100 µM (inactive),> 100 µM (inactive),> 100 µM (inactive),> 100 µM (inactive)
CSC(=O)c1sc(SC)[n+](-c2ccccc2)c1O,14.9 µM (inactive),16.4 µM (inactive),21 µM,18.7 µM (inactive),,10.4 µM (inactive),15.5 µM (inactive),17.7 µM (inactive),22.5 µM (inactive),25.4 µM (inactive),27.7 µM (inactive),30.3 µM (inactive),19.2 µM (inactive),16.5 µM (inactive),,17 µM (inactive),17.9 µM (inactive),8.28 µM (inactive),15.1 µM (inactive),11.1 µM (inactive)
O=C1Nc2ccccc2C1(O)Cc1ccccn1 (stereo unspecified),> 100 µM (inactive),> 100 µM (inactive),> 100 µM,> 100 µM (inactive),> 100 µM (inactive),> 100 µM (inactive),> 100 µM (inactive),> 100 µM (inactive),> 100 µM (inactive),> 100 µM (inactive),> 100 µM (inactive),> 100 µM (inactive),> 100 µM (inactive),> 100 µM (inactive),> 100 µM (inactive),> 100 µM (inactive),> 100 µM (inactive),> 100 µM (inactive),,
NC1=NCC(CN2CCOCC2)O1 (stereo unspecified),> 100 µM (inactive),> 100 µM (inactive),> 100 µM,> 100 µM (inactive),> 100 µM (inactive),> 100 µM (inactive),> 100 µM (inactive),> 100 µM (inactive),,> 100 µM (inactive),> 100 µM (inactive),> 100 µM (inactive),> 100 µM (inactive),> 100 µM (inactive),> 100 µM (inactive),> 100 µM (inactive),> 100 µM (inactive),> 100 µM (inactive),> 100 µM (inactive),> 100 µM (inactive)
C=C1CC[C@@H]2[C@](C)(COC(=O)CCC(=O)OC)CCC[C@@]2(C)[C@@H]1CCC1=CC(=O)OC1,> 100 µM (inactive),,39.5 µM,> 100 µM (inactive),26.2 µM (inactive),25.9 µM (inactive),46.5 µM (inactive),> 100 µM (inactive),74.3 µM (inactive),38.1 µM (inactive),77.8 µM (inactive),72.8 µM (inactive),> 100 µM (inactive),> 100 µM (inactive),> 100 µM (inactive),> 100 µM (inactive),70.5 µM (inactive),28.2 µM (inactive),> 100 µM (inactive),17.4 µM (inactive)
CN(C(=O)Cc1ccc(Cl)c(Cl)c1)[C@@H]1CCCC[C@H]1[N+]1(C)CC=CC1,> 100 µM (inactive),> 100 µM (inactive),> 100 µM,> 100 µM (inactive),> 100 µM (inactive),> 100 µM (inactive),> 100 µM (inactive),> 100 µM (inactive),> 100 µM (inactive),> 100 µM (inactive),> 100 µM (inactive),> 100 µM (inactive),> 100 µM (inactive),> 100 µM (inactive),> 100 µM (inactive),> 100 µM (inactive),> 100 µM (inactive),,,> 100 µM (inactive)
O=C1Oc2ccccc2C(=O)/C1=C\Nc1nc(-c2ccccc2)cs1,25.9 µM (inactive),8.75 µM (inactive),,7.38 µM (inactive),3.76 µM (inactive),2.31 µM (inactive),3.31 µM (inactive),16.7 µM (inactive),3.24 µM (inactive),4.07 µM (inactive),2.6 µM (inactive),10.6 µM (inactive),12.3 µM (inactive),11.8 µM (inactive),10.5 µM (inactive),23.4 µM (inactive),5.83 µM (inactive),1.35 µM (inactive),2.94 µM (inactive),2.28 µM (inactive)
Cn1c(CCC2(C)Cc3ccccc3C(=O)O2)cc2ccccc2c1=O (stereo unspecified),> 100 µM (inactive),,33.7 µM,19.4 µM (inactive),13.9 µM (inactive),16.4 µM (inactive),,24.7 µM (inactive),22 µM (inactive),24.2 µM (inactive),27.1 µM (inactive),26.3 µM (inactive),27.3 µM (inactive),45.5 µM (inactive),,18.5 µM (inactive),96.6 µM (inactive),12.7 µM (inactive),43.1 µM (inactive),> 10 µM (inactive)
Clc1n[nH]c2ccccc12,> 100 µM (inactive),> 100 µM (inactive),> 100 µM,> 100 µM (inactive),,> 100 µM (inactive),> 100 µM (inactive),> 100 µM (inactive),71 µM (inactive),> 100 µM (inactive),> 100 µM (inactive),> 100 µM (inactive),> 100 µM (inactive),> 100 µM (inactive),> 100 µM (inactive),> 100 µM (inactive),> 100 µM (inactive),> 100 µM (inactive),> 100 µM (inactive),> 100 µM (inactive)
O=c1c(Cl)c(Cl)cnn1-c1ccccc1,,5.05 µM (inactive) and 6.64 µM (inactive),2.35 µM and 1.85 µM,1.79 µM (inactive) and 2.08 µM (inactive),,1.26 µM (inactive) and 1.84 µM (inactive),,,9.38 µM (inactive) and 9.14 µM (inactive),4.07 µM (inactive) and 3.31 µM (inactive),,2 µM (inactive),,3.51 µM (inactive) and 1.79 µM (inactive),13 µM (inactive) and 6.85 µM (inactive),15 µM (inactive) and 8.49 µM (inactive),5.64 µM (inactive) and 4.79 µM (inactive),,,1.82 µM (inactive) and 1.47 µM (inactive)
